Reference: US20260250257A1, “ANTIBACTERIAL AND SYNERGISTIC ACTIVE COMPOUND AND USE THEREOF” (EAST CHINA UNIVERSITY OF SCIENCE AND TECHNOLOGY, priority 2023, published 2026)

Assays:
Format in all cases: cell-based
[1] = test system: ATCC19606 strain (Acinetobacter baumannii); assay: Broth microdilution, antibacterial activity of the compound used alone
Description: (§1) The broth microdilution method was used to test the antibacterial effects of the compounds of the present invention against various Gram-negative bacterial strains when used alone.

[2] = test system: ATCC9027 strain (Pseudomonas aeruginosa); assay: as above
Description: as §1

[3] = test system: ATCC13883 strain (Klebsiella pneumoniae); assay: as above
Description: as §1

[4] = test system: ATCC25922 strain (Escherichia coli); assay: as above
Description: as §1

[5] = test system: ATCC19606 strain (Acinetobacter baumannii); assay: Checkerboard antibacterial synergistic activity test with polymyxin E (FIC); set-up: key: FIC≤0.5 synergy; 0.5–1 additive; 1–2 indifferent; ≥2 antagonism; settings: combined with polymyxin E
Procedure: (§2) Polymyxin E was diluted in sterile MH broth medium to concentrations of 16, 8, 4, 2, 1, 0.5, 0.25, 0.125, 0.0625, 0.031, and 0.015 μg/ml, and the drug to be tested was diluted to concentrations of 256, 128, 64, 32, 16, 8, and 4 μg/ml. According to the checkerboard method, combinations of the drug to be tested and polymyxin at different concentrations in ascending order were placed into a 96-well plate, and corresponding blank control groups were set up. 50 μl of the drug solution was added to each well, then 100 μl of bacterial liquid was added, and incubated in a 37° C. incubator for 16 hours. […] Calculation and judgment criteria:
(§3) Fractional Inhibitory Concentration (FIC) is calculated as follows: […]
(§4) Judgment criteria: FIC≤0.5: synergistic effect; 0.5<FIC<1: additive effect; 1<FIC<2: indifferent effect; FIC≥2: antagonistic effect.
(§5) In the table: ATCC19606 strain is Acinetobacter baumannii, ATCC25922 strain is Escherichia coli, ATCC13883 strain is Klebsiella pneumoniae, ATCC9027 strain is Pseudomonas aeruginosa. All four strains were purchased from ATCC.

[6] = test system: ATCC9027 strain (Pseudomonas aeruginosa); assay: as above; set-up: key: FIC≤0.5 synergy; 0.5–1 additive; 1–2 indifferent; ≥2 antagonism; settings: combined with polymyxin E
Procedure: as §2, §3, §4, §5

[7] = test system: ATCC13883 strain (Klebsiella pneumoniae); assay: as above; set-up: key: FIC≤0.5 synergy; 0.5–1 additive; 1–2 indifferent; ≥2 antagonism; settings: combined with polymyxin E
Procedure: as §2, §3, §4, §5

[8] = test system: ATCC25922 strain (Escherichia coli); assay: as above; set-up: key: FIC≤0.5 synergy; 0.5–1 additive; 1–2 indifferent; ≥2 antagonism; settings: combined with polymyxin E
Procedure: as §2, §3, §4, §5

Row | SMILES | Antibacterial activity of the compound of Formula I, ATCC19606 [1] [µg/mL] | Antibacterial activity of the compound of Formula I, ATCC9027 [2] [µg/mL] | Antibacterial activity of the compound of Formula I, ATCC13883 [3] [µg/mL] | Antibacterial activity of the compound of Formula I, ATCC25922 [4] [µg/mL] | Synergistic activity (FIC value) ATCC19606 [5] | Synergistic activity (FIC value) ATCC9027 [6] | Synergistic activity (FIC value) ATCC13883 [7] | Synergistic activity (FIC value) ATCC25922 [8]
1 | CCc1oc(N=C2NCCCN2)nc1-c1c(SC)cc2cc(Cl)cc(Cl)n12 [Compound I-197] | 256 | 256 | 256 | 256 | 0.31 | 0.52 | 0.25 | 0.27
2 | Cc1ccc(NC(=O)Nc2cccc(-c3c[nH]c(N=C4NCCCN4)n3)c2)c(C)c1 [Compound I-199] | 256 | 256 | 256 | 256 | 0.16 | 0.75 | 0.51 | 0.51
3 | CSc1cc2c(C)cccn2c1-c1c[se]c(N=C2NCCCN2)n1 [Compound I-191] | 256 | 256 | 256 | 256 | 0.13 | 0.51 | 0.19 | 0.52
4 | CC(C)c1cc(-c2c[se]c(N=C(N)N)n2)cc(C(C)C)c1 [Compound I-18] | 256 | 256 | 256 | 256 | 0.15 | 0.62 | 0.33 | 0.39
5 | NC(N)=Nc1nc(-c2cccc3cccc(Cl)c23)c(Cl)s1 [Compound I-62] | 256 | 64 | 128 | 128 | 0.52 | 1.25 | 0.52 | 0.63
6 | CC(=O)Nc1cc(-c2csc(N=C(N)N)n2)ccc1-c1ccccc1 [Compound I-75] | 256 | 256 | 256 | 256 | 0.12 | 0.31 | 0.31 | 0.38
7 | Oc1cc(Oc2ccc(Cl)cc2Cl)cc(-c2csc(N=C3NCCCN3)n2)c1 [Compound I-156] | 256 | 256 | 256 | 256 | 0.04 | 0.28 | 0.13 | 0.2
8 | CSc1cc2cccc(C)n2c1-c1csc(N=C2NCCCN2)n1 [Compound I-194] | 256 | 64 | 128 | 128 | 1.25 | 0.63 | 1.25 | 0.5
9 | NC(N)=Nc1nc(-c2ccccc2Oc2ccc(I)cc2I)cs1 [Compound I-87] | 256 | 256 | 256 | 256 | 0.03 | 0.28 | 0.16 | 0.18
10 | CC(C)c1cccc(-c2c[nH]c(N=C(N)N)n2)c1 [Compound I-16] | 256 | 256 | 256 | 256 | 0.3 | 0.63 | 0.25 | 0.5
11 | CSc1cc2ccccn2c1-c1c[nH]c(N=C2NCCCN2)n1 [Compound I-190] | 256 | 256 | 256 | 256 | 0.75 | 1.25 | 1.25 | 1.25
12 | Nc1cc(Oc2ccccc2)cc(-c2c[nH]c(N=C3NCCCN3)n2)c1 [Compound I-135] | 256 | 256 | 256 | 256 | 0.26 | 0.53 | 0.75 | 0.51
13 | Oc1c(I)cc(-c2nc(N=C3NCCCN3)sc2Cl)cc1I [Compound I-183] | 256 | 256 | 256 | 256 | 0.25 | 0.52 | 1.25 | 1.25
14 | Cc1cc(-c2csc(N=C3NCCCN3)n2)cc(C)c1O [Compound I-173] | 256 | 256 | 256 | 256 | 0.75 | 0.63 | 0.38 | 0.5
15 | O=C(Nc1cccc(-c2coc(N=C3NCCCN3)n2)c1)Nc1ccc(Cl)cc1Cl [Compound I-200] | 256 | 256 | 256 | 256 | 0.25 | 0.53 | 0.53 | 1.25
16 | CC(C)=CCOc1ccc(-c2csc(N=C(N)N)n2)cc1 [Compound I-48] | 256 | 256 | 256 | 256 | 0.16 | 0.75 | 0.51 | 0.51
17 | Ic1ccccc1Oc1ccccc1-c1csc(N=C2NCCCN2)n1 [Compound I-147] | 256 | 64 | 128 | 128 | 0.03 | 0.28 | 0.16 | 0.18
